For one series, the system named is LoVo cells. Kind of series: Cell growth inhibition assay (MTS assay), LoVo cells. Format: cell-based, Human. Conditions: 48 hours, RPMI1640-SIT serum-free medium, read-out: Half maximal inhibitory concentration (IC50) LoVo cells. The procedure:
(§1) Cell Growth Inhibition Assay (MTS Assay)
(§2) 1. Cell Strain and Reagents
LoVo: Human colorectal adenocarcinoma cell line (ATCC catalog # CCL-229);
(§3) SIT solution (SIGMA), RPMI 1640 culture solution, Phosphate buffer, Dimethyl sulfoxide (DMSO), MTS solution (Promega), 96-well cell culture plate;
(§4) Anti-tumor compounds: synthesized by Tianjin Hemay Bio-tech Co., Ltd.;
(§5) Positive control drugs: doxorubicin (Zhejiang Hisun Pharmaceutical Co., Ltd).
(§6) The above-mentioned cells were cultured for several days (RPMI 1640, 10% of bovine serum), collected and suspended in RPMI1640-SIT serum-free medium, placed into a 96-well cell culture plate with each well containing about 20,000 cells/100 μL. The cells were cultured overnight at 5% CO2 and 37° C. The next day, representative antitumor compounds (between 3 and 10 mM) were dissolved in dimethyl sulphoxide (DMSO) to obtain a mother solution. Doxorubicin was used as positive control, DMSO was used as negative control.
(§7) The mother solution was diluted and added to the 96 well cell culture plate, culture for 48 hours at 5% CO2 and 37° C. Subsequently, 20 μL of MTS solution was added to each well of the 96 well cell culture plate and cultured for another 2 to 4 hours at 5% CO2 and 37° C. Absorbance was read at 490 nm wavelength, and converted into cell survival rate.
(§8) Calculation of Percent Inhibition:
(§9) %inhibition=100−[reading of absorbance(compound)/reading of absorbance(blank)]×100
(§10) For each concentration, there two measurements were taken and the average value was recorded. The half maximal inhibitory concentration (IC50) of cell growth was calculated by cell growth inhibition curve.
For orientation: Formazan colour is commonly taken as a measure of viable cells.

For the next series, the system named is HeLa cells. Briefly: Cell growth inhibition assay (MTS assay), HeLa cells. Format: cell-based, Human. Conditions: 48 hours, RPMI1640-SIT serum-free medium, read-out: Half maximal inhibitory concentration (IC50) HeLa cells. The procedure: as §1, §2
HeLa: Human adenocarcinoma cell line (ATCC catalog # CCL-2);
as §3, §4, §5, §6, §7, §8, §9, §10

A further series concerns SW620 cells. Briefly: Cell growth inhibition assay (MTS assay), SW620 cells. The class given is cell-based, Human. Conditions: RPMI1640-SIT serum-free medium, read-out: Half maximal inhibitory concentration (IC50) SW620 cells. As to the method:
as §1, §2
SW620: Human colorectal adenocarcinoma cell line;
as §3, §4, §5, §6, §7, §8, §9, §10

Another series can be described thus: Solubility in water. Format: physicochemical.

Where two headings read alike, the source gives them in different places. Bounds are passed on as bounds.

Regarding “2-(2-(2-(2-(2-(2-(2-oleoylaminoethoxy)ethoxy)ethoxy)ethoxy)ethoxy)ethoxy)acetyl-L-Alanyl-L-Valyl-Doxorubicin [Example 68]”, in the series with LoVo cells, the IC50 came to 30 µM.

On to “Trisodium 4-(2-(2-oleoylaminoethoxy)ethylamino)-4-oxo-butanoyl-L-Alanyl-L-Valyl-Doxorubicin trisuccinate [Example 121]”, for which the IC50 in the series on LoVo cells stood at 10 µM; in the series with HeLa cells, 5 µM.

For “Bissodium 4-(2-(2-oleoylaminoethoxy)ethylamino)-4-oxo-butanoyl-L-Alanyl-L-Valyl-Doxorubicin bissuccinate [Example 112]”, the IC50 in the series with LoVo cells is 2 µM; with SW620 cells (48 hours), 1500 nM; in the series with HeLa cells it was 3 µM.

For the compound “Oleoyl-L-Alanyl-L-Vayl-Doxorubicin maleate [Example 98]”, the IC50 with LoVo cells was found to be 30 µM.

As for “Linolenic acyl-L-Alanyl-L-Valyl-Doxorubicin bissuccinate [Example 81]”, the IC50 in the series on LoVo cells was found to be 18 µM.

As for `COc1cccc2c1C(=O)c1c(O)c3c(c(O)c1C2=O)CC(O)(C(=O)CO)CC3OC1CC(NC(=O)[C@@H](NC(=O)[C@H](C)NC(=O)CCC(=O)NCCNC(=O)CCC(=O)NCCNC(=O)OC(C)(C)C)C(C)C)C(O)C(C)O1` (stereo partly drawn) [Example 58, 4-(2-(4-(2-tert-butoxycarbonyl-aminoethylamino)-4-oxo-butanoylamino)ethylamino)-4-oxo-butanoyl-L-Alanyl-L-Valyl-Doxorubicin], the IC50 with LoVo cells turned out to be 75 µM.

Turning to “(4-(2-(2-oleoylaminoethoxy)ethylamino)-4-oxo-butanoyl)-L-Alanyl-L-Valyl-Doxorubicin [Example 54]”, the IC50 in the series on LoVo cells stood at 25 µM.

Regarding “Oleoyl-L-Alanyl-L-Valyl-Epirubicin bissuccinate [Example 75]”, in the series with LoVo cells, the IC50 was found to be 0.8 µM.

As to “Bissodium oleoyl-L-Alanyl-L-Valyl-Doxorubicin bis(2-carboxyl-3,4,5,6-tetrafluorobenzoate) [Example 119]”, the solubility in water entry in “Solubility in water” is reported as “more than 1 mg/mL”.

Consider “Bissodium linoleic acyl-L-Alanyl-L-Valyl-Doxorubicin bissuccinate [Example 108]”, for which the IC50 in the series with LoVo cells worked out at 15 µM.

For “Oleoyl-Glycyl-L-Alanyl-L-Valyl-Doxorubicin bissuccinate [Example 74]”, the IC50 in the series on LoVo cells turned out to be 8 µM.

With “Oleoyl-L-Alanyl-L-Valyl-Doxorubicin bis(2-carboxyl-3,4,5,6-tetrafluorobenzoate) [Example 97]”, the IC50 with LoVo cells amounted to 10 µM.

As to “Bissodium linolenic acyl-L-Alanyl-L-Valyl-Doxorubicin bissuccinate [Example 109]”, the IC50 in the series with LoVo cells came out at 12 µM.

As to “Oleoyl-L-Alanyl-L-Valyl-Doxorubicin bissuccinate [Example 70]”, the IC50 was 20 µM with LoVo cells and above 100 µM in the series with HeLa cells.

Consider “(4-(2-oleoylaminoethylamino)-4-oxo-butanoyl)-L-Alanyl-L-Valyl-Doxorubicin [Example 57]”, for which the IC50 in the series on LoVo cells was above 100 µM.

With `CCCCCCCCC=CCCCCCCCC(=O)NCCNC(=O)CCC(=O)NCCNC(=O)CCC(=O)NC(C)C(=O)NC(C(=O)NC1CC(OC2CC(O)(C(=O)CO)Cc3c(O)c4c(c(O)c32)C(=O)c2c(OC)cccc2C4=O)OC(C)C1O)C(C)C` [Example 59, 4-(2-(4-(2-oleoylaminoethylamino)-4-oxo-butanoylamino)ethylamino)-4-oxo-butanoyl-L-Alanyl-L-Valyl-Doxorubicin], in the series on LoVo cells, the IC50 was above 100 µM.

Take “(4-(2-(2-oleoylaminoethoxy)ethoxy)-4-oxo-butanoyl)-L-Alanyl-L-Valyl-Doxorubicin [Example 69]”: the IC50 is 25 µM in the series on LoVo cells, 12000 nM in the series with SW620 cells (48 hours) and above 100 µM in the series on HeLa cells.

On to “4-(2-oleoylaminoethylamino)-4-oxo-butanoyl-L-Alanyl-L-Valyl-Doxorubicin bissuccinate [Example 79]”, for which the IC50 in the series with LoVo cells is 50 µM.

Consider “Linoleic acyl-L-Alanyl-L-Valyl-Doxorubicin bissuccinate [Example 80]”, for which the IC50 is 20 µM in the series on LoVo cells and above 100 µM in the series on HeLa cells.

Consider “Oleoyl-L-Alanyl-L-Valyl-Daunorubicin bissuccinate [Example 76]”, for which the IC50 in the series on LoVo cells came out at 10 µM.

“4-(2-(2-oleoylaminoethoxy)ethylamino)-4-oxo-butanoyl-L-Alanyl-L-Valyl-Doxorubicin bissuccinate [Example 77]”: the IC50 is 12 µM in the series on LoVo cells and 75 µM in the series on HeLa cells.

For “DHA acyl-L-Alanyl-L-Valyl-Doxorubicin bissuccinate [Example 82]”, the IC50 in the series on LoVo cells amounted to 25 µM.

Take `CCCCCCCC/C=C\CCCCCCCC(=O)NCCOCCOCCOCCOCCOCCOCC(=O)N[C@@H](C)C(=O)N[C@H](C(=O)NC1CC(OC2CC(O)(C(=O)COC(=O)CCC(=O)O)Cc3c(O)c4c(c(O)c32)C(=O)c2c(OC)cccc2C4=O)OC(C)C1OC(=O)CCC(=O)O)C(C)C` (stereo partly drawn) [Example 86, 2-(2-(2-(2-(2-(2-(2-oleoylamino-ethoxy)ethoxy)ethoxy)ethoxy)ethoxy)ethoxy)actyl-L-Alanyl-L-Valyl-Doxorubicin bissuccinate]: the IC50 in the series with LoVo cells turned out to be 2.5 µM.

As to `COc1cccc2c1C(=O)c1c(O)c3c(c(O)c1C2=O)C[C@@](O)(C(=O)CO)C[C@@H]3O[C@H]1C[C@H](N)[C@H](O)[C@H](C)O1` [Doxorubicin, doxorubicin, reference compound], the IC50 was determined as 2.6 µM with LoVo cells (Homo sapiens, LoVo); 650 nM in the series on SW620 cells (Homo sapiens, SW-620, 48 hours); 0.3 µM in the series on HeLa cells (Homo sapiens, HeLa).

These data come from patent US20090325894A1 (priority 2007, published 2009).
